Reference: ChEMBL document CHEMBL2216752, “Carnitine palmitoyltransferase (CPT) modulators: a medicinal chemistry perspective on 35 years of research” (J Med Chem, 2011)

What was measured:
Rattus norvegicus [1] = experiment: Increase in plasma VLDL level in fasted Wistar rat at 16 mg/kg, ip; format: functional; settings: route intraperitoneal
[2] = molecular target: T1, Carnitine O-palmitoyltransferase 1, liver isoform (Homo sapiens, UniProt P50416); experiment: Inhibition of human CPT1A
T1 sequence (P50416 whole entry): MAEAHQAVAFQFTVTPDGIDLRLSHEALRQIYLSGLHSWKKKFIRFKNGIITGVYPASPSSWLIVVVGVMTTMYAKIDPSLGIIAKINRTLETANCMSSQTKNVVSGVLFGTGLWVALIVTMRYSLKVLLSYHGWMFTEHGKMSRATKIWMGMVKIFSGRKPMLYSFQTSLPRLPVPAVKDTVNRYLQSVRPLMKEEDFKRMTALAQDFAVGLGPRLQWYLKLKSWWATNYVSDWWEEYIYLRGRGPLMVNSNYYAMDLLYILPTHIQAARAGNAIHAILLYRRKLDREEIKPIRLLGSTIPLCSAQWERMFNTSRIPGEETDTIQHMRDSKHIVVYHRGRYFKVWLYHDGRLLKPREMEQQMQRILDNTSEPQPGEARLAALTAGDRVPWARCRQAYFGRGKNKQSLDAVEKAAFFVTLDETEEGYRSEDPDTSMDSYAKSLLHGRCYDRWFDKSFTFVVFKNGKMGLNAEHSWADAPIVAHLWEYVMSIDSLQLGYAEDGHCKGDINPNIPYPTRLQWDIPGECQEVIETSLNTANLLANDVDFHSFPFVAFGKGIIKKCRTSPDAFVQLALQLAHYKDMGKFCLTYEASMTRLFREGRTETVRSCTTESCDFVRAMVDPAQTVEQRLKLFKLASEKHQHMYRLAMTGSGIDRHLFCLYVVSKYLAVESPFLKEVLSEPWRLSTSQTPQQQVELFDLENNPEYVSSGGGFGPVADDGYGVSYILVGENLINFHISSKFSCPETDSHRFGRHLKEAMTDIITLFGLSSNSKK

[3] = molecular target: T2, Carnitine O-palmitoyltransferase 1, muscle isoform (Homo sapiens, UniProt Q92523); experiment: Inhibition of human CPT1B
T2 sequence (Q92523 whole entry): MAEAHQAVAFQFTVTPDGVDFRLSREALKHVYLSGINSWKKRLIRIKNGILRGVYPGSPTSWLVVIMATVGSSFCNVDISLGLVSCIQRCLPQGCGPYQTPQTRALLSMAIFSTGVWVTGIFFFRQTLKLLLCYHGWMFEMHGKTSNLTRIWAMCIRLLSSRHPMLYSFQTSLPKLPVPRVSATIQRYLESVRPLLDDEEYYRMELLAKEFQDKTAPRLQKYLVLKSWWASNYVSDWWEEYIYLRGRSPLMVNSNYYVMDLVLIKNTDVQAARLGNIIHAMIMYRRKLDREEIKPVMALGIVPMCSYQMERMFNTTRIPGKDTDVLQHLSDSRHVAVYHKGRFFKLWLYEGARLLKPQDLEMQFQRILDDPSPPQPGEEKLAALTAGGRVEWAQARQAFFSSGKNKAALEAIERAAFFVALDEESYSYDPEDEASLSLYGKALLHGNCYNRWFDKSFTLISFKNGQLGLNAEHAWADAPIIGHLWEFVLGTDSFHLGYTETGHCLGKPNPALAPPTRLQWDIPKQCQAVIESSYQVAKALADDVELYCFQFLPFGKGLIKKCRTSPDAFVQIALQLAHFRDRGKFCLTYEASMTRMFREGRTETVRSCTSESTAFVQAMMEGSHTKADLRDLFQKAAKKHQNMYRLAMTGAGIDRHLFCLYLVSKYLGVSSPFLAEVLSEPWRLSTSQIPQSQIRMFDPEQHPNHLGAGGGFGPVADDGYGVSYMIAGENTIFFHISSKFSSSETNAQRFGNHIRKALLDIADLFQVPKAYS

[4] = molecular target: T3, Carnitine O-palmitoyltransferase 2, mitochondrial (Rattus norvegicus, UniProt P18886); experiment: Inhibition of rat CPT2
T3 sequence (P18886 whole entry): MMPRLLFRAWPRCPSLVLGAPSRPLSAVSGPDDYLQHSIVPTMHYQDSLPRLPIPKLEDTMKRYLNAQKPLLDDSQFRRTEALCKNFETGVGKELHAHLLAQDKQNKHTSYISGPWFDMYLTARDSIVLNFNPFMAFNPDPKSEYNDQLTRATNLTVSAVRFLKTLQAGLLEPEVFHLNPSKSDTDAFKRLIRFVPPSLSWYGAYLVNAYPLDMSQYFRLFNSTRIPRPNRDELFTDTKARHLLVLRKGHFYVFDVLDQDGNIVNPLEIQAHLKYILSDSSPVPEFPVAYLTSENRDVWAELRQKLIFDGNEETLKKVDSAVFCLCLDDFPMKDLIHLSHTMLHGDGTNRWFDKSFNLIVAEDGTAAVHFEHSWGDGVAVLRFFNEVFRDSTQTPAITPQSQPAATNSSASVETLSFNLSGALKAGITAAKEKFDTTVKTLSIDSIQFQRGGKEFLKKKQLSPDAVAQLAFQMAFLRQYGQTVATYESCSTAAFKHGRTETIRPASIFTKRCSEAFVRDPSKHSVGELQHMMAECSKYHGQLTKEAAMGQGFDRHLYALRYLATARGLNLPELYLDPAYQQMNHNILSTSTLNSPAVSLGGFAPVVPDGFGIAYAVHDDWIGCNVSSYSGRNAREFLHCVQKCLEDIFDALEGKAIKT

[5] = Inhibition of carnitine palmitoyltransferase in 20 hrs fasted Sprague-Dawley rat liver mitochondria assessed as palmitoylcarnitine oxidation by radiometry
[6] = Inhibition of carnitine palmitoyltransferase in rat mitochondria
[7] = Inhibition of carnitine palmitoyltransferase in 20 hrs fasted Sprague-Dawley rat liver mitochondria assessed as palmitate oxidation by radiometry
Rattus norvegicus [8] = experiment: Increase in plasma FFA level in fasted Wistar rat at 16 mg/kg, ip; format: functional; settings: route intraperitoneal
[9] = molecular target: T4, Carnitine O-palmitoyltransferase 2, mitochondrial (Homo sapiens, UniProt P23786); experiment: Inhibition of human CPT2
T4 sequence (P23786 whole entry): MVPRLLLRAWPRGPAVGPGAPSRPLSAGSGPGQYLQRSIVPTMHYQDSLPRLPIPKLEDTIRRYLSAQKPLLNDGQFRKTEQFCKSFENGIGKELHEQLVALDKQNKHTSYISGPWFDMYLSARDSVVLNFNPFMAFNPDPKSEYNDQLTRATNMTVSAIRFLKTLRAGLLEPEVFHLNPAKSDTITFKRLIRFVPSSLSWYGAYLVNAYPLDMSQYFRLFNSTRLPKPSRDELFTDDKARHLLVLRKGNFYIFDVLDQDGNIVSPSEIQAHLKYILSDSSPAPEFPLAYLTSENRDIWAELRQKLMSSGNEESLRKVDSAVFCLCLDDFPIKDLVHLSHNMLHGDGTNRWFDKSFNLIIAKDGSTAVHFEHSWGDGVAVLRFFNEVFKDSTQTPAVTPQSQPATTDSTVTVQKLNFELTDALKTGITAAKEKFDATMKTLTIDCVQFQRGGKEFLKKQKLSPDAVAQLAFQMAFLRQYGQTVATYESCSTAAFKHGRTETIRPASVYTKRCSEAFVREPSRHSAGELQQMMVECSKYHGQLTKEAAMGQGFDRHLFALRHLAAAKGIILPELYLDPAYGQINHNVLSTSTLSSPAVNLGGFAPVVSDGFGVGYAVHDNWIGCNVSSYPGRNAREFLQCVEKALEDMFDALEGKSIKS

[10] = molecular target: T3, Carnitine O-palmitoyltransferase 2, mitochondrial; experiment: Inhibition of CPT2 in 24 hrs fasted rat liver mitochondria assessed as palmitoylcarnitine oxidation by radiometry
[11] = Inhibition of carnitine palmitoyltransferase in 24 hrs fasted rat liver mitochondria assessed as palmitoylcarnitine oxidation by radiometry
Rattus norvegicus [12] = experiment: Increase in plasma TG level in fasted Wistar rat at 16 mg/kg, ip; format: functional; settings: route intraperitoneal
Rattus norvegicus [13] = experiment: Reduction in palmitate oxidation in rat liver mitochondria at 18 mg/kg, ip administered as single dose measured 24 hrs post dose; format: functional; set-up: scale not given: the % may be the effect or the level left; settings: route intraperitoneal
Rattus norvegicus [14] = experiment: Increase in plasma LDL level in fasted Wistar rat at 16 mg/kg, ip; format: functional; settings: route intraperitoneal
Rattus norvegicus [15] = experiment: Reduction in plasma glucose level in fasted Wistar rat at 16 mg/kg, ip; format: functional; set-up: scale not given: the % may be the effect or the level left; settings: route intraperitoneal
[16] = molecular target: T5, Carnitine O-palmitoyltransferase 1, liver isoform (Rattus norvegicus, UniProt P32198); experiment: Inhibition of rat CPT1A
T5 sequence (P32198 whole entry): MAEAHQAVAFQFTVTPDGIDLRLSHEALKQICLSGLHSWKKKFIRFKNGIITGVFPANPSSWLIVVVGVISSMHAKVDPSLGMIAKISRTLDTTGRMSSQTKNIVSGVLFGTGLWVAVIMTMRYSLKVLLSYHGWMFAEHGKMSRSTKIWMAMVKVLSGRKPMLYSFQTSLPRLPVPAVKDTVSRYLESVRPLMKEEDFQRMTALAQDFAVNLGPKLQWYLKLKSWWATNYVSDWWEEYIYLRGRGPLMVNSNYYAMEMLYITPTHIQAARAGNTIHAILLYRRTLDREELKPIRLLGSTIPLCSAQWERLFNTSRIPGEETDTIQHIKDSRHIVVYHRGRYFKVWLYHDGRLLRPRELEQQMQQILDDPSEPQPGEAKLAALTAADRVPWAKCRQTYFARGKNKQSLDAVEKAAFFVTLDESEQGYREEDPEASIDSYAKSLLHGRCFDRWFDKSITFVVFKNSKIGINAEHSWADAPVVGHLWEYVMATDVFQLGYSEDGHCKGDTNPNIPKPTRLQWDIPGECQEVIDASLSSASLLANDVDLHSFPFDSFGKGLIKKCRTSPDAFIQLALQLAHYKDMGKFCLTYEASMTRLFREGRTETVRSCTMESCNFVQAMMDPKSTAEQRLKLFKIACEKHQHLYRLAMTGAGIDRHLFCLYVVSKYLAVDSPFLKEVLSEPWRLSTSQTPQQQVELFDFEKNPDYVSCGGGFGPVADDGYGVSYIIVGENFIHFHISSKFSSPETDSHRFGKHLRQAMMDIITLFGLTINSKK

[17] = molecular target: T1, Carnitine O-palmitoyltransferase 1, liver isoform; experiment: Inhibition of CPT1 in liver mitochondria
[18] = Inhibition of FAO in hepatocytes; format: cell-based; settings: hepatocyte
Mus musculus [19] = experiment: Induction of weight loss in DIO mouse at 15 mg/kg, ip administered single dose measured 20 hrs post dose (reference value: 2 %); format: functional; settings: route intraperitoneal
[20] = molecular target: T6, Carnitine O-palmitoyltransferase 1, liver isoform (Homo sapiens) (UniProt P50416); experiment: Increase in liver CPT1 activity expressed in yeast mitochondrial extracts
T6 sequence (whole entry): T1 sequence (P50416 whole entry)

[21] = molecular target: Carnitine O-palmitoyltransferase 1, muscle isoform (Homo sapiens) (UniProt Q92523); experiment: Increase in muscle CPT1 activity expressed in yeast mitochondrial extracts; settings: Muscle tissue
[22] = Inhibition of human FAO
Hepatocyte = experiment: Increase in palmitate oxidation rat hepatocytes a at 80 uM; format: functional
Mus musculus [23] = experiment: Increase in energy production in DIO mouse at 15 mg/kg, ip administered single dose; format: functional; settings: route intraperitoneal
[24] = Inhibition of rat FAO
[25] = molecular target: Carnitine O-palmitoyltransferase 1, liver isoform (Rattus norvegicus) (UniProt P32198); experiment: Increase in CPT1 activity in rat hepatocytes using [3H]carnitine by radiometric assay; format: cell-based; settings: Hepatocyte

Compound `C[N+](C)(C)C[C@H](N)CC(=O)[O-]` has an Activity (Rattus norvegicus [1]) of 1034%, an IC50 [2] of 76.4 µM and an IC50 [3] greater than 100 µM. The IC50 [4] was 5.1 µM, the IC50 [5] was 12 µM and the IC50 [6] was 3.2 µM. The IC50 [7] was 3.2 µM, the Activity (Rattus norvegicus [8]) was 244% and the IC50 [9] was 3.9 µM. The IC50 [10] was 0.8 µM, the IC50 [11] was 5.4 µM and the Activity (Rattus norvegicus [12]) was 684%. It also gave an Activity (Rattus norvegicus [13]) of 68%, an Activity (Rattus norvegicus [14]) of 88% and an Activity (Rattus norvegicus [15]) of 16%.
In the case of `CCCCc1ccc(NC(=O)OCCN2CCCCC2CC(C2CCCCC2)C2CCCCC2)cc1` (configuration not stated), the IC50 [4] is reported as greater than 10 µM and the IC50 [16] is reported as greater than 10 µM.
For `COc1ccc(CN2CCN(CCCSc3cc(C(C)(C)C)c(O)c(C(C)(C)C)c3)CC2)c(OC)c1OC`, the IC50 [17] was 51 µM.
In the case of `CCCCCCOc1cccc(OCCCCCC(=O)NC2(CC(=O)[O-])CC[N+](C)(C)CC2)c1`, the IC50 [18] is reported as 19 µM.
With `C=C1C(=O)O[C@H](CCCCCCCC)[C@H]1C(=O)O` the Activity (Mus musculus [19]) was 4.4%, the Activity [20] was 20% and the Activity [21] was 20%. For the same compound, the IC50 [22] was 21.9 µM, the Activity (Hepatocyte) was 750% and the Activity (Mus musculus [23]) was 32.9%. The IC50 [24] was greater than 100 µM and the Activity [25] was 250%.
